Data from US6451288B1, “Method of treating lung diseases with uridine 5′-diphosphate and analogs thereof” (The University of North Carolina at Chapel Hill, priority 1997, dated 2002).

Columns and labels:
[1] = target: P2Y2 receptor (Homo sapiens, UniProt P41231); conditions: UTP-free UDP; cited from earlier work
[2] = system: sheep; experiment: Tracheal mucus velocity in sheep; format: in vivo; conditions: 400 μmole nebulized
Text: To measure the effect of UDP on tracheal mucus velocity (TMV), the nasal passages of conscious adult ewes were anesthetized with a 2% lidocaine solution. After local anesthesia was produced, a modified endotracheal tube (7.5 mm) was placed such that the cuff was just below the vocal cords (as verified by fluoroscopy). Inspired air was warmed and humidified. The cuff on the endotracheal tube was inflated only during administration of the test compound to minimize possible impairment of TMV by the cuff. Test compounds were administered by nebulization in a volume of 4 mL over a period of 10-12 min. TMV was measured by fluoroscopy. Ten to twenty radiopaque disks (Teflon/bismuth trioxide; 1 mm diameter; 0.8 mm thick, weighing 1.8 mg) were introduced into the trachea through a modified suction catheter with a puff of compressed air (3-4 L/min). Velocities of the individual disks were recorded on videotape form a portable image intensifier unit. Individual disk velocities were calculated by measuring the distance traveled by each disk during a 1 min observation period. Values reported are the means of the individual disk velocities. A collar was worn by the sheep, which was used as a standard to correct for magnification errors inherent in the fluoroscope.

[3] = system: sheep; experiment: Mucociliary clearance in sheep; format: in vivo; conditions: 400 μmole nebulized
Method: Healthy adult ewes were given ^99mTc-labeled serum albumin (^99mTc-HCA) via a nebulized aerosol. The (^99mTc-HCA)(20 mCi) was administered over 5 minutes through a nasotracheal tube introduced under local anesthesia with 2% lidocaine. After administration of the ^99Tc-HCA, the animals were given the test compound UDP. The test compound was administered by nebulization in a volume of 4 mL over a period of 10-12 min. The test compound was given at a dose of 400 μmole. After the administration of the test compound, the animals were extubated. Clearance of the radiolabeled particles was monitored with a gamma camera. Measurements were made a 0, 5, 10, 15, 20, 25, 30, 35, 40, 45, 50, 55, 60, 75, 90, 105 and 120 minutes. Results of this study (n=7) have shown that the test compound promotes clearance of radiolabeled particles when compared to the saline control. […] The response to UDP was maximal at 60 minutes and was maintained for the second hour of the study. The results of this experiment are illustrated graphically in FIG. 6.

[4] = system: human nasal epithelial cells; experiment: Cytosolic Ca2+ measurement (Fura-2) in human nasal epithelial cells; format: cell-based
Method: (§1) Human nasal epithelial cells were harvested from turbinates using protease XIV (Sigma, St. Louis, Mo.) for 24-48 h at 4° C., as previously described. R. Wu, et al., Am. Rev. Respir. Dis. 132, 311-320 (1985). Cytosolic Ca^2+ and inositol phosphate measurements were made on nasal cell monolayers plated on porous Transwell Col filters (pore diameter 0.45 μm; Costar, Cambridge, Mass.) and maintained in Ham's F12 media supplemented with 10 ng/mL epidermal growth factor, 3.75 ng/mL endothelial cell growth factor, 500 ng/mL hydrocortisone, 5 ng/mL insulin, and 1 mM CaCl2 (Ham's F12+4X medium). Assays were carried out 7 to 10 days after seeding, a time coincident with the development of the maximal transepithelial potential difference according to N. Nakahata & T. K. Harden, Biochem. J. 241, 337-344 (1987).
(§2) Nasal cells grown on Transwell Col filters affixed to O-rings were maintained in F12+4X medium and studied 7-10 days after cell plating as described above. For Ca^2+i measurements, cells were loaded with Fura-2 and mounted in a miniature Ussing chamber over an objective of a microscope (Zeiss) coupled to a microfluorimeter, and cytosolic Ca^2+i levels were quantitated as previously described in Paradiso et al., supra. The fluorescence intensity ratio (excitation 340/380; emission λ 450 nm) was collected from a field of 30-40 nasal cells on monolayers and converted to Ca^2+ as previously described in E. H. Larsen et al, J. Physiol. 424, 109-131 (1990). For simultaneous measurements of Cl^− secretion, the transepithelial potential difference (TEP) was measured by a Voltage-Clamp/Pulse Generator (Model VCC600, Physiologic Instruments, San Diego, Calif.) and recorded on a two-channel recorder (Linsesis Model L200S). To calculate changes in Cl^− secretory current (ΔICl^−), a defined 1 sec current pulse was delivered across the monolayer every 10 sec. The nasal tissue was converted from its native Na^+ absorptive state to a Cl^− secretory state by exposing monolayers to a luminal medium containing 0 Na^+/low Cl^− and to a basolateral medium of Krebs bicarbonate Ringer solution.

[5] = system: human nasal epithelial cells; experiment: Cl- secretion (transepithelial potential difference, Ussing chamber) in human nasal epithelial cells; format: cell-based
Method: as §1, §2

[6] = system: human nasal epithelial cells; experiment: [3H]inositol phosphate formation in polarized human nasal epithelial cells; format: cell-based
Method: as §1
Confluent human nasal epithelial cells as described in Example 1 were labeled for 18 h in inositol-free DMEM containing 4.5g/L glucose and 5 μCi/mL of [^3H]myo-inositol. These cells were pre-incubated with 10 mM LiCl and challenged with agonists for an additional 10 min. No changes of medium were made subsequent to addition of [^3H]myo-inositol to avoid release of endogenous ATP from stressed cells. E. R. Lazarowski et al., Br. J Pharmacol. 116, 1619-1627 (1995). Incubations were terminated by addition of 5% ice-cold trichloroacetic acid and the resultant [^3H]inositol phosphates were separated on Dowex AG1-X8 columns as described in A. M. Paradiso et al., Nature 377, 643-646 (1995).

[7] = subsequent 3 μM then 10 μM UDP, mucosal (desensitization)

P2Y2 receptor, sequence (P41231 whole entry): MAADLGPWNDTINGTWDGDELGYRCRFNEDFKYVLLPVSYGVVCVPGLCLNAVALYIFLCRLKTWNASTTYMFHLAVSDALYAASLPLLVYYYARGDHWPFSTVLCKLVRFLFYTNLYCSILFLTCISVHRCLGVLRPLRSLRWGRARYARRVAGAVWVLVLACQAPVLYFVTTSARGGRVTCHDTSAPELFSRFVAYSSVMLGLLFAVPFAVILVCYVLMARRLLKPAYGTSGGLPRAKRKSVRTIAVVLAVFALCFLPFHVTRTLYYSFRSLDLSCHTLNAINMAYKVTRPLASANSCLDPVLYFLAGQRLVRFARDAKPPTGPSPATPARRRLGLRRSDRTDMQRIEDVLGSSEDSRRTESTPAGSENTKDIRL

O=c1ccn([C@@H]2O[C@H](COP(=O)(O)OP(=O)(O)O)[C@@H](O)[C@H]2O)c(=O)[nH]1 [UDP, uridine 5′-diphosphate]
Activity at the P2Y2 receptor [1]: essentially inactive
Time of maximal effect after administration (TMV) [2]: 15 min
Time of maximal response (clearance) [3]: 60 min
Maximal effect, clearance of radiolabeled particles ([3]; n=7): 33.6±1.6 % clearance
ΔCa2+ (mobilization of intracellular calcium) ([4]; 3 μM, mucosal bath, first addition): 66 ± 12 nM
Maximal calcium mobilization effect relative to response with mucosal UTP ([4]; mucosal, 100 μM): approximately one half
ΔCa2+ after subsequent addition [4, 7]: 0
ΔICl-, mucosal ([5]; 3 μM, mucosal): 16±3 μA·cm^2
Cl- secretory response (ΔICl-) ([5]; 3 μM, mucosal bath, first addition, n=8): −16.3±3 μA/cm^2
ΔICl-, serosal ([5]; 3 μM, serosal): 0±0 μA·cm^2
Magnitude of Cl- secretion response relative to mucosal UTP response ([5]; mucosal): approximately one half
ΔICl- after subsequent addition [5, 7]: 0
Accumulation of [3H]inositol phosphates, mucosal ([6]; 100 μM, mucosal): marked accumulation
Effect on inositol phosphate accumulation, serosal bath ([6]; 100 μM, serosal): negligible effect
EC50 ([6]; Homo sapiens, Epithelial cell, 10 min, added to mucosal medium, 10 min, read-out: EC50 for stimulating inositol phosphate formation): 190 ± 27 nM
Maximal inositol phosphate effect relative to response with mucosal UTP ([6]; mucosal, 100 μM): approximately one half
